Test [1] deals with NF1 deficient cells compared to NF1 wild type cells. The test can be described thus: Bafilomycin A1 dose response curve. Conditions: representative of two replicates. Type of test: cell-based. The source says:
This graph is representative of two replicates.

For test [2], the system named is p62 and LC3B protein expression in U87-MG cells. Nature of the test: Western blot of autophagy markers p62 and LC3B. Type of test: cell-based, human. Conditions: U87-MG, Western blot, 2 μM Y102, 50 μM HCQ. The source says:
Ras dysregulated tumors depend on autophagy to remove damaged mitochondria and allow for their survival. […] LC3B I is lipidated to form LC3B II following induction of autophagy. LC3B II is recruited and subsequently integrated into the autophagosome. p62 functions as an adaptor protein in autophagy by binding to both ubiquitin-labeled damaged cargo such as protein aggregates or mitochondria and LC3B II to facilitate cargo uptake into the autophagosome. Degradation of the cargo occurs when the autophagosome fuses with the lysosome; when autophagy is inhibited with hydroxychloroquine (HCQ), a drug that prevents acidification of the lysosome, both LC3B II and p62 accumulate as derogation of the autophagosome is prevented, making them valuable markers of autophagic flux.
The data for FIG. 4 was obtained as follows: U87-MG cells were plated in 6-well plates at a concentration of 500,000 cells/well and allowed to adhere overnight. Cells were treated for 12 h with either DMSO or 2 μM Y102, followed by an additional 12 h co-treatment with or without 50 μM HCQ. Following treatment, cells were harvested using 0.25% trypsin, rinsed with PBS, and lysed with 75 μL modified RIPA buffer (50 mM NaCl, 1% v/v nonidet P40, 0.5% w/v sodium deoxycholate, 0.05% w/v sodium dodecyl sulfate, 50 mM Tris pH 8.0) containing 1 mM NaVO4, 1 mM NaF, 1 mM phenylmethylsulfonyl fluoride, 0.1 μg/mL leupeptin, 100 μM benzamidine HCl, 1 μM aprotinin, 0.1 μg/mL soybean trypsin inhibitor, 0.1 μg/mL pepstatin, and 0.1 μg/mL antipain. Protein was quantified using a BCA assay kit (Pierce). 40 μg of protein prepared in 1× Laemmli sample buffer (50 mM Tris pH 6.8, 0.02% w/v bromophenol blue, 2% w/v sodium dodecyl sulfate, 10% v/v glycerol, 1% v/v beta-mercaptoethanol, 12.5 mM EDTA) was separated on a 4-15% polyacrylamide gel using sodium dodecyl sulfate-polyacrylamide gel electrophoresis. Protein was transferred to nitrocellulose membrane, blocked in 5% nonfat milk in TBST, and probed with primary antibodies anti-LC3BI/II (Cell Signaling, 1:1000, overnight at 4° C.), anti-p62/SQSTM-1 D-3 (Santa Cruz, 1:1000, 1 h at room temperature), or anti-α-tubulin B-1-2-5 (Santa Cruz, 1:10000, 1 h at room temperature) in 2% nonfat milk in TBST. Blots were incubated in 1:20,000 anti-rabbit HRP or 1:10,000 anti-mouse HRP secondary antibodies diluted in 2% nonfat milk in TBST for 1 h at room temperature. Film was exposed to standard ECL (Pierce)-coated blots and developed using a standard film processor.
For orientation: Immunoblotting shows a protein as a band on a membrane.

Turning to `CO/C1=C\C(C)=C\[C@@H](C)[C@@H](O)[C@@H](C)C/C(C)=C/C=C/[C@H](OC)[C@@H]([C@@H](C)[C@@H](O)[C@H](C)[C@@]2(O)C[C@@H](O)[C@H](C)[C@@H](C(C)C)O2)OC1=O` [Bafilomycin A1], the “sensitivity of NF1 deficient vs NF1 wild type cells” value in test [1] is “selectively sensitive”.
As for `CCN(CCO)CCCC(C)Nc1ccnc2cc(Cl)ccc12` (stereo not drawn) [HCQ, hydroxychloroquine, reference compound], in test [2] (24 hours), the “p62 accumulation (autophagy marker)” value is recorded as “accumulation of p62”. Also, the “LC3B I/II conversion (LC3B II accumulation)” value in test [2] (single agent) was “LC3B I/II conversion as seen”.

These data come from patent US9873705B2, “Vinylogous thioester compounds and methods of use” (THE TRUSTEES OF DARTMOUTH COLLEGE, priority 2015, dated 2018).
